Where two headings read alike, the source gives them in different places.
Assays:
[1] = system: wild type HEK293 host cell line; conditions: glutamine-free selection medium
Procedure: (§1) First, the cells were inoculated in T-25 flask containing 5 ml of DMEM supplemented with 1×GSEM, 7% (v/v) FBS and glutamine at the density of 4×10^5 cells/ml. 24 hours later, when the cultured cells reached 90% of confluency in the flask, the vector containing a target protein gene mixed with liposome was additionally added to the gs gene knockout HEK293 cell line prepared in Experimental Example 1. 24 hours later, the selection marker protein (GS) inhibitor MSX was treated to the selection medium (glutamine-free DMEM supplemented with 1×GSEM and 10% (v/v) dFBS) at the concentrations of 0 μM, 25 μM, 50 μM, and 100 μM. The cells introduced with the vector were inoculated in the 96 well plate by 200 μl/well. The wild type HEK293 host cell line was also introduced with a target protein gene by the same manner as described above, followed by the selection from the 96 well plate. The cell concentration for the inoculation into the 96 well plate was determined by the concentration at which only one clone would survive after 3 weeks of selection period. To select the MSX resistant cell line (transformed cell line), the cells showing MSX resistance could be collected as a pool or prepared as each individual clone and herein the cell line was collected as an individual clone.
(§2) In the table above, “survival rate” was obtained by dividing the number of all the wells containing the cell by the number of the total inoculated wells.
(§3) The cells inoculated in a 96 well plate were observed under microscope and the medium was replaced every 5˜7 days. […] The collected cells were inoculated in a 48 well plate (500 μl). When the cells were grown in the well, the cells were inoculated again in a 24 well plate (1 ml). When the cells were fully grown in the 24 well plate, the cells were collected and inoculated in another 24 well plate containing 1 ml of culture medium at the density of 1×10^5 cells/ml. To quantify the production of the target protein, batch culture was performed for 6 days. On the 6th day, the medium was collected and ELISA was performed with the target protein to measure the productivity of each clone. By the method above, 50 clones originated from the gs knockout HEK93 cell line were constructed each in the presence of 0 μM, 25 μM, and 50 μM of MSX. 50 control clones originated from the wild type HEK293 cell line were also constructed for comparison.
(§4) In the Table above, “selection efficiency” indicates the portion of high production clones (those clones that could produce a target protein at least 1 μg/μl until the 6th day) in 50 constructed clones at each condition.

[2] = system: HEK293_GS-KO host cell line; conditions: glutamine-free selection medium
Procedure: as §1, §2, §3, §4

[3] = system: HEK293 cell line; conditions: glutamine-free EX-CELL 293 SFM, MSX 0-1000 μM, suspension culture
Procedure: The cell growth rate and the cell viability were investigated in the course of culture of HEK293 cell line with the addition of different concentrations of MSX.
Particularly, HEK293 host cells were inoculated in 50 ml of the glutamine-free EX-CELL® 293 SFM medium (Sigma), and also inoculated in the control medium supplemented with 4 mM glutamine. To the experimental group, MSX, the glutamine synthetase inhibitor, was added at the concentrations of 0 μM, 100 μM, 300 μM, 500 μM, and 1000 μM, respectively. The cell mixture was inoculated in Erlenmeyer flask at the density of 3×10^5 cells/ml, followed by suspension culture. 1 ml of the cell culture fluid was taken from each flask every 24 hours, followed by investigation of the cell concentration and the cell viability.

**Q.** Which Survival rate ([1]; MSX 25 μM, inoculation 1 cells/96 well) does the source give for `CS(=N)(=O)CC[C@H](N)C(=O)O` (stereo partly shown) [MSX, methionine sulfoximine] here?
**A.** Its Survival rate is 22.9%.

**Q.** What about the Survival rate ([1]; MSX 50 μM, inoculation 10 cells/96 well) of the same molecule?
**A.** Its Survival rate is 28.1%.

**Q.** What about the Survival rate ([1]; MSX 100 μM, inoculation 500 cells/96 well) of the same molecule?
**A.** Its Survival rate is 75.8%.

**Q.** And the Survival rate ([2]; MSX 25 μM, inoculation 2000 cells/96 well)?
**A.** Its Survival rate is 11.9%.

**Q.** What about the Survival rate ([2]; MSX 50 μM, inoculation 2000 cells/96 well) of the same molecule?
**A.** The Survival rate was 2.3%.

**Q.** And the Survival rate ([2]; MSX 100 μM, inoculation 5000 cells/96 well)?
**A.** The Survival rate was 0.5%.

**Q.** What about the “resistance against MSX (cell growth and cell viability)” value [3] of the same molecule?
**A.** Its value is “high resistance”.
